From US6930091B2, “Peptides and remedy for bone diseases containing the same as active ingredient” (priority 1995, dated 2005)
Where no end group is shown, it is not given here.

Tested on: ddy male mice
Settings: mouse, in vivo, iv
Description: By using the peptide prepared in Example 1, its acute toxicity was tested on ddy male mice (with the body weight ranging from 40 to 45 g). The present peptide was dissolved in a physiological saline (pH 6.0) and the solution thereof was administered intravenously into a vein in the tail of each mouse, and observation was made for 14 days. The dosage amount was set respectively at 1, 10, and 100 μg/kg.

KLTTIFPLNWKYRKAL [Example 1, Lys Leu Thr Thr Ile Phe Pro Leu Asn Trp Lys Tyr Arg Lys Ala Leu]
Deceased mice (in words): not deceased mouse observed
Number of Deceased Mice: 0/5
